# Reference: US11802127B2, “3,4-dihydro-2,7-naphthyridine-1,6(2H,7H)-diones as MEK inhibitors” (Pfizer Inc., priority 2021, dated 2023)
# What was measured:
# [1] = target: T1, P-gp (MDR1) (Homo sapiens, UniProt P08183); assay: Efflux ratio in MDR1 transfected LLC-PK1 cells; assay type: in vitro ADME; conditions: pig, Papp(B−A)/Papp(A−B)
# T1 construct: expressed in transfected cells; host or cells: LLC-PK1 (porcine kidney) cells transfected with MDR1
# Procedure, shortened: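 LLC-PK1 cells transfected with MDR1, test article at 1 μM (1% organic), transport measured A→B and B→A over 2 h at 37° C. Monolayer integrity checked with lucifer yellow, compound quantified by LC-MS/MS. Efflux ratio = Papp(B−A)/Papp(A−B).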
# [2] = MDR1 LLC-PK1 and BCRP MDCKII Permeability Assay: permeability coefficient (Papp); assay type: in vitro ADME; conditions: MDCK, test article 1 μM, 37° C.
# Procedure, shortened: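 Bidirectional (A to B, B to A) transport of test article (1 μM, 1% organic) across MDR1-transfected LLC-PK1 or BCRP-transfected MDCKII (canine P-gp knockout) monolayers, 2 h at 37° C., 5% CO2, in triplicate. Lucifer yellow monitored monolayer integrity. Concentrations measured by LC-MS/MS against labetalol internal standard.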
# [3] = system: ERK1/2(Thr202/Tyr204) phosphorylation (MEK-dependent) in A375 cells; assay: Cellular Phospho-p44/42 MAPK (Erk1/2) (Thr202/Tyr204) Assay; assay type: cell-based; conditions: Homo sapiens, A-375, 1-hour incubation, pERK1/2 (Thr202/Tyr204) In-Cell Western normalized to GAPDH
# Procedure, shortened: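 A375 cells exposed 1 h to 10-point 1:3 dilutions (top 20–1 μM, 0.5% DMSO), then fixed and stained for pERK1/2 (Thr202/Tyr204) by In-Cell Western. Signal normalized to GAPDH per well; DMSO and 1 μM reference inhibitor define 0 and 100% inhibition.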
# T1 sequence (P08183 whole entry): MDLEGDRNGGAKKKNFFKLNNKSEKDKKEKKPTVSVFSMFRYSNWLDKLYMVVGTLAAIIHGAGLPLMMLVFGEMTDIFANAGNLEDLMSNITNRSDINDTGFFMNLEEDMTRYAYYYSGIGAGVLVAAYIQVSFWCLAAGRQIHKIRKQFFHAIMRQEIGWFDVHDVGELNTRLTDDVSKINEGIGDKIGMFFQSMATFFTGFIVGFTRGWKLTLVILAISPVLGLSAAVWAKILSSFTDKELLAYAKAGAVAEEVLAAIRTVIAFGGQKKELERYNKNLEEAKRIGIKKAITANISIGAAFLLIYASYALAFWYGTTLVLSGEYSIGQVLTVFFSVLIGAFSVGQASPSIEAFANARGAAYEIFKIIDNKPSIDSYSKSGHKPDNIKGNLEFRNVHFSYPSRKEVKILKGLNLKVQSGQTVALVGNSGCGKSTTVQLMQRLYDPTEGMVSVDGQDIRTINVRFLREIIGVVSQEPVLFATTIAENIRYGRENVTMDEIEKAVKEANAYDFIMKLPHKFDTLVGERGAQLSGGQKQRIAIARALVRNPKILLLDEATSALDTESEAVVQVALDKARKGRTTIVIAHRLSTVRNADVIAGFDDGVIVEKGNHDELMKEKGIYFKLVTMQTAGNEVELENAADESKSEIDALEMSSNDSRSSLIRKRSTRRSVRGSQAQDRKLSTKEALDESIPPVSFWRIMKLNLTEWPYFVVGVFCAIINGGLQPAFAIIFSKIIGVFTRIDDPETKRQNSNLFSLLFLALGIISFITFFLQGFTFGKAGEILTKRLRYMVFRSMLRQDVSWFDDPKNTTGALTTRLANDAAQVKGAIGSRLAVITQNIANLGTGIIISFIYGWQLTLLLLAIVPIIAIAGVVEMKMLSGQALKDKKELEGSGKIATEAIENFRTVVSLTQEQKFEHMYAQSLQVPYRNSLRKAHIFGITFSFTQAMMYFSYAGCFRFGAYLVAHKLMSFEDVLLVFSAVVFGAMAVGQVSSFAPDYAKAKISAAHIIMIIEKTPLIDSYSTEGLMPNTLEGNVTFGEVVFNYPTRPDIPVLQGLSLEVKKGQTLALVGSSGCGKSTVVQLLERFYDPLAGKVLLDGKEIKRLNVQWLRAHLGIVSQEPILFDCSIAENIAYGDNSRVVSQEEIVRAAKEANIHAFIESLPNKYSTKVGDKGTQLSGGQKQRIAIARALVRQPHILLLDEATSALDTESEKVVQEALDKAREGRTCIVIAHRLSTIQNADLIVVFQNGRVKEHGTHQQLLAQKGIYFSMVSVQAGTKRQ
SMILES,"efflux ratio at 2 h, 1 μM [1]","Papp at 2 h, 1 μM [2] [×10⁻⁶ cm/s]",IC50 [3] [nM]
"CSc1ccc(Nc2c3c(cc(=O)n2C)CCN(OCCO)C3=O)c(F)c1 [Example 6, 8-((2-fluoro-4-(methylthio)phenyl)amino)-2-(2-hydroxyethoxy)-7-methyl-3,4-dihydro-2,7-naphthyridine-1,6(2H,7H)-dione]",3.4,32.1,8
"Cn1c(Nc2ccc(Br)cc2F)c2c(cc1=O)CCN(OCCO)C2=O [Example 7, 8-((4-bromo-2-fluorophenyl)amino)-2-(2-hydroxyethoxy)-7-methyl-3,4-dihydro-2,7-naphthyridine-1,6(2H,7H)-dione]",5.4,34.5,23
"Cn1c(Nc2ccc(I)cc2F)c2c(cc1=O)CCN(OCCO)C2=O [Example 8, 8-((2-fluoro-4-iodophenol)amino)-2-(2-hydroxyethoxy)-7-methyl-3,4-dihydro-2,7-naphthyridine-1,6(2H,7H)-dione]",7.1,34.2,1
"CCc1ccc(Nc2c3c(cc(=O)n2C)CCN(OCCO)C3=O)c(F)c1 [Example 14, 8-((4-ethyl-2-fluorophenyl)amino)-2-(2-hydroxyethoxy)-7-methyl-3,4-dihydro-2,7-naphthyridine-1,6(2H,7H)-dione]",2.7,31.1,15

# Second part, led by results:
"efflux ratio at 2 h, 1 μM [1]","Papp at 2 h, 1 μM [2] [×10⁻⁶ cm/s]",SMILES,IC50 [3] [nM]
6.2,24.6,"Cn1c(Nc2ccc(OC(F)F)cc2F)c2c(cc1=O)CCN(OCCO)C2=O [Example 22, 8-((4-(difluoromethoxy)-2-fluorophenyl)amino)-2-(2-hydroxyethoxy)-7-methyl-3,4-dihydro-2,7-naphthyridine-1,6(2H,7H)-dione]",21
2.9,31.1,"Cc1c2c(c(Nc3ccc(Br)cc3F)n(C)c1=O)C(=O)N(OCCO)CC2 [Example 36, 8-((4-bromo-2-fluorophenyl)amino)-2-(2-hydroxyethoxy)-5,7-dimethyl-3,4-dihydro-2,7-naphthyridine-1,6(2H,7H)-dione]",30
